Results on three compounds are retold here after patent US11208376B2, “Use of a metal supplement in animal feed” (Nouryon Chemicals International B.V., priority 2009, dated 2021).

Marks after values point to notes of the source that are not given here.

Data set [1] can be described thus: Precipitation test of zinc sources with two-fold molar excess of phytic acid, soluble Zn by FAAS. Format: physicochemical. Particulars: for Soluble Zn(II) after subjecting complexed or chelated Zn(II) to a two-fold molar excess of phytic acid: one day at ambient temperature. How it is done: (§1) The following 3 concentrations of the final metal concentration were tested, i.e. high (H) at 25 mmol/kg, medium (M) at 5 mmol/kg, and low (L) at 0.5 mmol/kg. For each concentration and pH a separate phytic acid stock solution was prepared by diluting the calculated amount of phytic acid with de-mineralized water, setting the pH with diluted NH4OH solutions, and filling up with demineralized water up to the calculated amount. […] The pH was not adjusted any further. Then an equal number of 0.0125 mol/kg solutions were prepared by diluting the above solutions with demineralized water. […] On all 4 zinc-containing and 3 copper-containing solutions in total 6 precipitation tests were carried out, i.e. at levels H, M, and L and for each level at pH=4 and at pH=6. These tests were marked H4, H6, M4, M6, L4, and L6, respectively. In total 42 samples were obtained in this way. After standing for one day the precipitate was removed and the mother liquor was analyzed for its zinc or copper content by FAAS (Flame Atomic Absorption Spectroscopy). […] The total weight was exactly determined again. The 50 ml test tubes were filled according to Table 1 below.

The conditions of data set [2]: without the presence of phytate; result in words. How it is done: A small excess of 2% of the complexing or chelating agent intake was used to prepare the metal-containing solutions. This ensures a complete complexation or chelation of the metal ions. The mixture was dissolved in part of the demineralized water. The pH was adjusted in order to reach a pH value between approximately 4 and 5. All solutions were filled up with demineralized water to 400 g.

A short description of data set [3]: Precipitation test of copper sources with two-fold molar excess of phytic acid, soluble Cu by FAAS. Format: physicochemical. The settings on record: one day at ambient temperature. The method, then: as §1, with “was” for “was not”, “to 4.97 with 0.5 M H2SO4.” for “any further.”
Setting [4] is: H4: pH 4, metal 25 mmol/kg, phytic acid 50 mmol/kg.
Where [5] appears, read: H6: pH 6, metal 25 mmol/kg, phytic acid 50 mmol/kg.
[6] abbreviates: L4: pH 4, metal 0.5 mmol/kg, phytic acid 1 mmol/kg.
Setting [7] is: L6: pH 6, metal 0.5 mmol/kg, phytic acid 1 mmol/kg.
[8] abbreviates: M4: pH 4, metal 5 mmol/kg, phytic acid 10 mmol/kg.
The mark [9] stands for this setting: M6: pH 6, metal 5 mmol/kg, phytic acid 10 mmol/kg.

Consider `CSCC[C@H](N)C(=O)[O-].CSCC[C@H](N)C(=O)[O-].[Zn+2]` [Zn(Methionine)2], for which the “Soluble Zn(II) after subjecting complexed or chelated Zn(II) to a two-fold molar excess of phytic acid” value is on record as 21* % (mol/mol) in data set [1] (setting [4]); 32* % (mol/mol) in data set [1] (setting [5]); 99 % (mol/mol) in data set [1] (setting [6]); 63 % (mol/mol) in data set [1] (setting [7]); 55* % (mol/mol) in data set [1] (setting [8]); 13* % (mol/mol) in data set [1] (setting [9]). Moreover, the “Appearance (clear solution or precipitate) of zinc source combined with phytic acid” value in data set [1] (levels H, M, L, result in words) was “immediately a precipitate was formed”.

Take `CSCC[C@H](N)C(=O)O.[Cu]` [copper methionine]: the Solubility in water result in data set [2] was “insoluble in water”.

On to `O=S(=O)([O-])[O-].[Cu+2]` [CuSO4], for which the “Soluble Cu(II) after subjecting complexed or chelated Cu(II) to a two-fold molar excess of phytic acid” value in data set [3] (setting [4]) is reported as 64* % (mol/mol); in data set [3] (setting [5]), 26* % (mol/mol); in data set [3] (setting [6]) it was 97 % (mol/mol); in data set [3] (setting [7]), 80 % (mol/mol); in data set [3] (setting [8]), 97* % (mol/mol); in data set [3] (setting [9]) it was 36* % (mol/mol).
